From patent US20080194701A1, “Bifunctional Enzyme with Y-Glutamylcysteine Synthetase and Glutathione Synthetase Activity and Uses Thereof” (priority 2004, published 2008)
Where two headings read alike, the source gives them in different places.

Experiments:
[1] = biological target: T1, S. agalactiae γ-GCS-GS (Streptococcus agalactiae serotype V, UniProt Q8DXM9); test: γ-GCS activity assay based on ADP formation, S. agalactiae γ-GCS-GS; assay type: biochemical; parameters: corresponded to full-length S. agalactiae γ-GCS-GS with an N-terminal His8-tag; made in house; host or cells: E. coli SG13009 with pQE30-gshAB plus pREP4 or pRARE; conditions: for Vmax: unit = 1 μmol product per hour
T1 sequence (Q8DXM9 1-750): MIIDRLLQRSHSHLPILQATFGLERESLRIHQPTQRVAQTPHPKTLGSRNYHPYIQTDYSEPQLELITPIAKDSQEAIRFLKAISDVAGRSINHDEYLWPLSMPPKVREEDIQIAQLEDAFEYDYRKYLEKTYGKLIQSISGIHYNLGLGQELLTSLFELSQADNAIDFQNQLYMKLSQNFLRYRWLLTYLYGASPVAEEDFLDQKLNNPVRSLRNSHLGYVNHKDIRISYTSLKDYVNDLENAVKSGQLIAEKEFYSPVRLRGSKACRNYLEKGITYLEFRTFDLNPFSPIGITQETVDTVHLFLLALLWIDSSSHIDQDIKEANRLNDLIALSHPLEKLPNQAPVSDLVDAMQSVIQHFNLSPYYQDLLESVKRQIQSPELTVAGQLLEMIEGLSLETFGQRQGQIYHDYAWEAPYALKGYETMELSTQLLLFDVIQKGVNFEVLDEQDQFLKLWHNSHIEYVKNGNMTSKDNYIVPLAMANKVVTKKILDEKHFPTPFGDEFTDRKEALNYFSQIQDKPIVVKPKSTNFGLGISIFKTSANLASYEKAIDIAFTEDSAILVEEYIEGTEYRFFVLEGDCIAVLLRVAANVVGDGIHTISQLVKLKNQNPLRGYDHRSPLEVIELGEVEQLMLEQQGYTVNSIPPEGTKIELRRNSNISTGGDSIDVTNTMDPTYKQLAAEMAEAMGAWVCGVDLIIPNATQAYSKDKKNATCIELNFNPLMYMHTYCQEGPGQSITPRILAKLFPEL
Procedure: In Table 1, a unit was defined as the amount of enzyme activity required to catalyze the formation of 1 μmol of product per hour. Specific activity was shown as units per mg protein. Activity was determined at 37° C. based on ADP formation in reaction mixtures containing L-glutamate and L-cysteine and using pyruvate kinase and lactate dehydrogenase to couple ADP formation to NADH oxidation, which was monitored at 340 nm.
Exp. Purif. 13, 268-276 (1998).
At set time points ranging from one to 30 minutes, 5 μl aliquots were removed and assayed for residual enzyme activity using the standard γ-GCS assay based on ADP formation.

[2] = biological target: S. mutans γ-GCS-GS (Streptococcus mutans serotype c, UniProt Q8DW15); test: γ-GCS activity of S. mutans γ-GCS-GS
Sequence of S. mutans γ-GCS-GS (Q8DW15 whole entry): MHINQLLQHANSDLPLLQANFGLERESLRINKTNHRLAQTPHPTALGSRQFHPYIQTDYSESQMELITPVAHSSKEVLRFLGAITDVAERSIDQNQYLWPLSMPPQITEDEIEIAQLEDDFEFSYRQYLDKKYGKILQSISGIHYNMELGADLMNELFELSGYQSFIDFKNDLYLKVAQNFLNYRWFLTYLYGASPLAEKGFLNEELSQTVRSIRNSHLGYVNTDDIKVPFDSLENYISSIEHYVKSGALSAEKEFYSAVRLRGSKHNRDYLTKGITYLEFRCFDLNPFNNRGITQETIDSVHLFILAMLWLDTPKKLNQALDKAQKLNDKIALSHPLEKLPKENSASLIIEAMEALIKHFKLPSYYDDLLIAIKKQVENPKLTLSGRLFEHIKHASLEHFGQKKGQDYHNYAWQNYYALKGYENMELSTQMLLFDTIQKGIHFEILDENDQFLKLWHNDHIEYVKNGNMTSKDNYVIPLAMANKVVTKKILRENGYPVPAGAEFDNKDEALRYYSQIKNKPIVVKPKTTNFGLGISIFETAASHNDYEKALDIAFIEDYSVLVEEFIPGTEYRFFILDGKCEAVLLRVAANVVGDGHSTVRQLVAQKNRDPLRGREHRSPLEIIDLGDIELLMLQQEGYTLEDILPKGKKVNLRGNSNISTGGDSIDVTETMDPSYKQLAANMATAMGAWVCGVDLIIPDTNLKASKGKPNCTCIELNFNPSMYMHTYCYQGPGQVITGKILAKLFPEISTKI
From the text: 3′ and 5′ […] 3′ and introduced unique Bgl II and Hind III sites (underlined), respectively.

[3] = biological target: T2, Human γ-GCS (Homo sapiens, UniProt P48506); conditions: cited from earlier work; for Ki: read-out: Ki; for Km: substrate Km; for Vmax: unit = 1 μmol product per hour
T2 sequence (P48506 1-637): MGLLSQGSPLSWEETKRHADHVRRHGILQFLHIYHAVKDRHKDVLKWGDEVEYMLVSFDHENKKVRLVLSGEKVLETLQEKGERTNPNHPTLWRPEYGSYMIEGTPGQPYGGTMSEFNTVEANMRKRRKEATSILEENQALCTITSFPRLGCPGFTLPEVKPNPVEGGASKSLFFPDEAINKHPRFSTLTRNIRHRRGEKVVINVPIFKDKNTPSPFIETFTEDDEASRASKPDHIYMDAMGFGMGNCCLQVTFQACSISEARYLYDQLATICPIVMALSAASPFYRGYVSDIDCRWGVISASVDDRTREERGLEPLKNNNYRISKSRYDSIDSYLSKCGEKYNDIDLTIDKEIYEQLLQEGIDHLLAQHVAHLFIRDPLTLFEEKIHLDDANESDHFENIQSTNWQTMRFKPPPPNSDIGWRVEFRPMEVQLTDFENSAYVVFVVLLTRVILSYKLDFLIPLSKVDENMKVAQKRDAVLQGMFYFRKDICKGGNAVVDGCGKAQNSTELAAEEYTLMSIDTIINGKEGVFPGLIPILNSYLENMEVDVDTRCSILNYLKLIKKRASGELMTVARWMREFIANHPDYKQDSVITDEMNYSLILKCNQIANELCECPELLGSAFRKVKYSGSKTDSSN
T2 sequence (P48507 1-274 partner): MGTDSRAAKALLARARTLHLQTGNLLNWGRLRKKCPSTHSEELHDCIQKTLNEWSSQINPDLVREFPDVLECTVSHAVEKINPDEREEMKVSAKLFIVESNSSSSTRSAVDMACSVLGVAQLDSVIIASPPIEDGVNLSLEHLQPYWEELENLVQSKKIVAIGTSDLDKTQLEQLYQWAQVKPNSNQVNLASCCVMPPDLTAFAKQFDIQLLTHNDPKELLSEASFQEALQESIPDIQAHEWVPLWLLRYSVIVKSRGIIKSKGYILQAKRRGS

[4] = biological target: E. coli γ-GCS (Escherichia coli, UniProt P0A6W9); conditions: cited from earlier work; for Vmax: unit = 1 μmol product per hour; for Km: substrate Km
Sequence of E. coli γ-GCS (P0A6W9 whole entry): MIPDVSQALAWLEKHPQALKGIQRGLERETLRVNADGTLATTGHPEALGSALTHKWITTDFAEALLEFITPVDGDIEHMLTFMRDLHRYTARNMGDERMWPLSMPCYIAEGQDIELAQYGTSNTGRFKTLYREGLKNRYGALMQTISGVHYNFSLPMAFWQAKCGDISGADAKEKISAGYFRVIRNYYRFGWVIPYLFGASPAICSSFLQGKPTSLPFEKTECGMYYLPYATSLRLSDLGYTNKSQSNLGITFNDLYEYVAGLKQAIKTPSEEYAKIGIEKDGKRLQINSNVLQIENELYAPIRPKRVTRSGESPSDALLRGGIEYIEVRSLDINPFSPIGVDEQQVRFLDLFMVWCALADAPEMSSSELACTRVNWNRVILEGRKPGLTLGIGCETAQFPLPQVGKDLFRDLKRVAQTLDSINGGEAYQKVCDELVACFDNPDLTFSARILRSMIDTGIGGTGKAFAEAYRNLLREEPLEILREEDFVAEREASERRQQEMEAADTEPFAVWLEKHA

[5] = biological target: E. faecalis γ-GCS-GS (Enterococcus faecalis, UniProt Q82ZG8); test: γ-GCS activity of E. faecalis γ-GCS-GS
[6] = biological target: T1, S. agalactiae γ-GCS-GS; test: GS activity assay based on ADP formation, S. agalactiae γ-GCS-GS; conditions: GSH concentrations of up to 100 mM
Procedure: Transformed cells were grown, induced, and harvested by centrifugation, and were then broken using a French pressure cell. […] The column was equilibrated with 50 mM Tris HCl buffer, pH 7.4, containing 5 mM L-glutamate, 5 mM MgCl2, and 5 mM β-mercaptoethanol, and the high-speed supernatant was loaded. After washing the column with equilibration buffer to remove proteins lacking a His-tag, the expressed His8-tagged protein was eluted using the same buffer supplemented with 200 mM imidazole. Amount of γ-GCS activity was determined as described in Example 2. […] It was observed that the purified enzyme catalyzed both the γ-GCS and the GS reactions. Since the GS-specific activity was higher than the specific activity for any known GS enzyme, it was apparent that the expressed 85 kDa S. agalactiae protein (rather than a trace impurity), accounted for the observed GS activity. Using the pREP4 auxiliary plasmid instead of the pRARE plasmid gave somewhat lower yields (325 mg total protein vs. 442 mg protein using pRARE) but the specific activities of the γ-GCS activity (870 units/mg) and GS activities (1143 units/mg) were similar.
Results for E. coli GS are from H. Gushima et al. J. Appl. Biochem. 5, 210-218 (1983). Results for rat GS are from J. L. Luo et al. Biochem. Biophys. Res. Commun. 275, 577-581 (2000). Results for human GS are from R. Njalsson et al. Biochem. Biophys. Res. Commun. 289, 80-84 (2001) and R. Njalsson et al. Biochem. J. 349, 275-279 (2000).

[7] = biological target: T3, Human γ-GCSc (Homo sapiens, UniProt P48506); conditions: catalytic subunit only, cited from earlier work; for Km: substrate Km
T3 sequence (P48506 1-637): T2 sequence (P48506 1-637)

[8] = biological target: T4, Human GS (Homo sapiens, UniProt P48637); conditions: cited from earlier work
T4 sequence (P48637 1-474): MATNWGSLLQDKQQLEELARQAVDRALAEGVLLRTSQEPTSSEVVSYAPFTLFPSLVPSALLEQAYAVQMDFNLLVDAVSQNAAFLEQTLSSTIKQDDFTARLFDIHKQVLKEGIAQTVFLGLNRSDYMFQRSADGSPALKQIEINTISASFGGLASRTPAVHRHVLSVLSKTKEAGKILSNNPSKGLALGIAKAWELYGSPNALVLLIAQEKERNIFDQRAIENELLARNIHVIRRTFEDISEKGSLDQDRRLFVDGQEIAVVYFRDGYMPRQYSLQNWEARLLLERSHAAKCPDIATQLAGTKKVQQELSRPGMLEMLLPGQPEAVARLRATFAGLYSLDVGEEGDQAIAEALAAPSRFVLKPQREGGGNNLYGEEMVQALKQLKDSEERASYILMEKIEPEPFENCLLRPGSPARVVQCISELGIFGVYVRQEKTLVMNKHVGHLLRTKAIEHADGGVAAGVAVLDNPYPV

[9] = biological target: E. coli GS (Escherichia coli, UniProt P04425); conditions: cited from earlier work; for Km: substrate Km
Sequence of E. coli GS (P04425 whole entry): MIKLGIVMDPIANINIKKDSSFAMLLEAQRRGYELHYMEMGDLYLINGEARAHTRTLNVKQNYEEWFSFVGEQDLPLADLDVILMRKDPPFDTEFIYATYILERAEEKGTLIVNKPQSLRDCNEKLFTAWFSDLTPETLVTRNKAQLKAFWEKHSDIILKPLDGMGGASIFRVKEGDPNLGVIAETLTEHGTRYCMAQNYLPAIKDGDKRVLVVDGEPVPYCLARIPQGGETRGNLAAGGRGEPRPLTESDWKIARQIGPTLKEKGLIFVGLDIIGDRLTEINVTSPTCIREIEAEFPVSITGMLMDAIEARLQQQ

[10] = biological target: T5, Rat GS (Rattus norvegicus, UniProt P46413); conditions: cited from earlier work
T5 sequence (P46413 1-474): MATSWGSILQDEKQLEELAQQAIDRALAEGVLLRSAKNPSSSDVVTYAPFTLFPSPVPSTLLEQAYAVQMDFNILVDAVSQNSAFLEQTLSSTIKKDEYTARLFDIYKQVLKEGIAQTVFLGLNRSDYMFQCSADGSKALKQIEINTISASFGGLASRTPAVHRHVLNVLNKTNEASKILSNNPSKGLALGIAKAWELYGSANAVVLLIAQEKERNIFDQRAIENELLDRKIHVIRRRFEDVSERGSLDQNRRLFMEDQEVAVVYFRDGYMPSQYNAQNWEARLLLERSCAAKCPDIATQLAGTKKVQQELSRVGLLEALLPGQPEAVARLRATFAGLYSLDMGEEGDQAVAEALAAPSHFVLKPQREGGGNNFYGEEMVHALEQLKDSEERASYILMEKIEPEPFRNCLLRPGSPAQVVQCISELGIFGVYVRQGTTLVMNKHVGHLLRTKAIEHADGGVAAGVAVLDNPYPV

[11] = test system: N[C@@H](CS)C(=O)O; test: purified protein, by the assay type; conditions: other: substrate Km, γ-GCS activity
Procedure: Expression yielded less soluble protein than seen with S. agalactiae and E. faecalis γ-GCS-GS, but the enzyme was nonetheless isolated in about 10% purity as judged by Coomasie blue stained SDS-PAGE gels. Although both γ-GCS and GS activities were determined to be present, only the γ-GCS activity has been characterized to date in terms of substrate affinities.

[12] = MSO also pre-incubated with MgATP, absence of L-glutamate

N[C@@H](CCC(=O)N[C@@H](CS)C(=O)NCC(=O)O)C(=O)O [GSH, L-γ-glutamyl-L-cysteinylglycine, reference compound]
Ki [1]: no inhibition | Ki [2]: 67 ± 0.8 mM | Ki [3]: 5.8 mM | Ki ([4]; read-out: Ki): 2.7 mM | Ki [5]: 25.1 ± 0.8 mM | inhibition of GS activity [6]: does not significantly inhibit

N[C@@H](CS)C(=O)O [L-cysteine]
Km [3]: 100 ± 20 µM | Vmax [3]: ~1500 units/mg | Vmax [4]: 3590 ± 200 units/mg | Vmax [7]: ~1250 units/mg | Km [7]: 130 ± 10 µM

NCCSSCCN [Cystamine, reference compound]
inhibition of γ-GCS activity [1]: no reproducibly measurable inhibition | Ki ([1]; inhibition of γ-GCS activity, initial reversible binding): no inhibition | Ki [3]: 2 mM | Ki [4]: no inhibition

CP(=O)(O)CCC(N)C(=O)O.N (centres unmarked) [glufosinate (ammonium salt), glufosinate ammonium]
inhibition of the γ-GCS activity (in words) [1, 12]: moderately good inhibitors | Ki ([1]; inhibition of γ-GCS activity, initial reversible binding, read-out: Ki): 29 mM

N[C@@H](CCC(=O)O)C(=O)O [L-glutamate]
Km [1]: 23000 ± 2000 µM | Vmax ([1]; γ-GCS activity): 1341 ± 145 units/mg | Km ([2]; substrate Km, γ-GCS activity): 17000 ± 1000 µM | Km [3]: 1900 ± 200 µM | Vmax [3]: ~1500 units/mg | Km [4]: 1900 ± 200 µM | Vmax [4]: 3170 ± 125 units/mg | Vmax [7]: ~1250 units/mg | Km [7]: 3200 ± 100 µM | Km ([5]; substrate Km, γ-GCS activity): 79000 ± 14000 µM

NCC(=O)O [glycine]
Vmax [8]: 361 ± 84 units/mg | Km ([8]; substrate Km): 1300 ± 300 µM | Vmax [9]: 650 units/mg | Km [9]: 2000 µM | Vmax [10]: 678 units/mg | Km ([10]; substrate Km): 913 µM

S. mutans γ-GCS-GS (Streptococcus mutans UA159)
Km [11]: 144 ± 4 µM

CS(=N)(=O)CC[C@H](N)C(=O)O (mixture of isomers) [L-Methionine-S,R-sulfoximine]
Ki [1]: > 100 mM | inhibition of the γ-GCS activity (in words) [1, 12]: no significant inhibition

NC(CCCP(=O)(O)O)C(=O)O (racemic) [D,L-2-amino-5-phosphonovaleric acid]
Ki [1]: > 100 mM | inhibition of the γ-GCS activity (in words) [1]: not effective

NC(CCP(=O)(O)O)C(=O)O (racemic) [D,L-2-amino-4-phosphonobutyric acid]
Ki [1]: 13 mM | inhibition of the γ-GCS activity (in words) [1, 12]: moderately good inhibitors

CC[C@H](N)C(=O)O [L-α-aminobutyrate]
Km ([1]; substrate Km, γ-GCS activity): 8300 ± 1000 µM | Vmax ([1]; γ-GCS activity): 1148 ± 73 units/mg | Km [3]: 1300 µM | Vmax [3]: ~1500 units/mg | Km [4]: 3900 ± 400 µM | Vmax [4]: 2970 ± 120 units/mg | Vmax [7]: ~1250 units/mg | Km [7]: 1700 µM

N[C@@H](CCC(=O)N[C@@H](CS)C(=O)O)C(=O)O [L-γ-glutamyl-L-cysteine]
Vmax [9]: 650 units/mg | Km [9]: 2600 µM
